Data on six compounds can be found in article PMC10254773, “Identification of Flavonoids from Scutellaria barbata D. Don as Inhibitors of HIV-1 and Cathepsin L Proteases and Their Structure–Activity Relationships” (Molecules, 2023).

The target of this experiment is T1, HIV-1 PR (HIV-1 protease) (HIV-1 M:B_HXB2R, UniProt P04585).
T1 construct: gene gag-pol; mature protease cut from Gag-Pol polyprotein (Pr160Gag-Pol); SensoLyte 520 HIV-1 assay kit; homodimer
Type of experiment: biochemical. The settings on record: n = 3; read-out: HIV-1 PR / IC50 ± SD (mg/mL) (converted).
Turning to `O=c1cc(-c2ccc(O)cc2)oc2cc(O)cc(O)c12` [Apigenin], the IC50 was 481 µM.

In the case of `O=C(O)[C@H]1O[C@@H](Oc2cc3oc(-c4ccccc4)cc(=O)c3c(O)c2O)[C@H](O)[C@@H](O)[C@@H]1O` [Baicalin], the IC50 was 1860 µM.

With `O=c1cc(-c2ccc(O)c(O)c2)oc2cc(O)cc(O)c12` [Luteolin], the IC50 is 136 µM.

As to `O=C1C[C@@H](c2ccc(O)cc2)Oc2cc(O)cc(O)c21` [Narigenin], the IC50 was 661 µM.

For `O=c1cc(-c2ccc(O)cc2)oc2cc(O)c(O)c(O)c12` [Scutellarein], the IC50 is 238 µM.

With `COc1c(O)cc(O)c2c(=O)cc(-c3ccccc3)oc12` [Wogonin], the IC50 was 1410 µM.
